This assay has as its target PD-L1 His protein / PD-1 Fc protein (Homo sapiens, UniProt Q9NZQ7). The experiment in a line: HTRF Assay (PD-1/PD-L1 interaction). The assay is classed as binding. The conditions noted are these: PD-L1 His 6 nM, PD-1 Fc 6 nM. The procedure, abridged:
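Compounds tested from 20 μM down to 0.001 μM (3-fold) against 6 nM PD-L1 His and 6 nM PD-1 Fc, 15 min room temperature incubation. Detection after 1 h at room temperature with Tb cryptate anti-6HIS and XL665 anti-human IgG reagents (mixture at 0.35 nM and 6.7 nM), HTRF signal.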
For orientation: TR-FRET usually uses a lanthanide donor and a delayed reading to cut background.

Usually IC50 stands for the concentration at which inhibition is half-maximal. A lower IC50 goes with greater potency in that assay.

Chain of PD-L1 His protein / PD-1 Fc protein (Q9NZQ7 19-238 limits assumed): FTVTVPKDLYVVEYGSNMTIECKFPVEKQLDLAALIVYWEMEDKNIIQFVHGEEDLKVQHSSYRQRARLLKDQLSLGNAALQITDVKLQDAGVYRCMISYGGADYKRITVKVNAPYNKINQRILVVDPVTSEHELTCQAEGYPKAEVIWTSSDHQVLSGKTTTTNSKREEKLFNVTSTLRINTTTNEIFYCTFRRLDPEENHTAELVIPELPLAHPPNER

For the molecule `COc1nc(-c2cccc(-c3cccc(-c4ccc5c(CN(C)CCO)cn(C)c5n4)c3Cl)c2Cl)ccc1CNC[C@@H]1CCC(=O)N1` [Example 412, (5S)-5-[[[6-[2-Chloro-3-[2-chloro-3-[3-[[2-hydroxyethyl(methyl)amino]methyl]-1-methyl-pyrrolo[2,3-b]pyridin-6-yl]phenyl]phenyl]-2-methoxy-3-pyridyl]methylamino]methyl]pyrrolidin-2-one], half-maximal inhibition (IC50) was put at 0.0052 µM. In other words, the single-digit nanomolar range.

`COc1nc(-c2cccc(-c3cccc(-c4ccc5c(CNC[C@@H]6CCO6)cn(C)c5n4)c3Cl)c2Cl)ccc1CNC[C@@H]1CCC(=O)N1` [Example 413, (5S)-5-[[[6-[2-Chloro-3-[2-chloro-3-[1-methyl-3-[[[(2S)-oxetan-2-yl]methylamino]methyl]pyrrolo[2,3-b]pyridin-6-yl]phenyl]phenyl]-2-methoxy-3-pyridyl]methylamino]methyl]pyrrolidin-2-one] showed an IC50 of 0.19 µM.

In turn, `COc1nc(-c2cccc(-c3cccc(-c4ccc5c(CNCCN6CCCC6=O)cn(C)c5n4)c3Cl)c2Cl)ccc1CNC[C@@H]1CCC(=O)N1` [Example 414, 1-[2-[[6-[2-Chloro-3-[2-chloro-3-[6-methoxy-5-[[[(2S)-5-oxopyrrolidin-2-yl]methylamino]methyl]-2-pyridyl]phenyl]phenyl]-1-methyl-pyrrolo[2,3-b]pyridin-3-yl]methylamino]ethyl]pyrrolidin-2-one] showed an IC50 of 0.17 µM.

Take `COc1nc(-c2cccc(-c3cccc(-c4ccc5c(CNC6CCN(C(C)=O)CC6)cn(C)c5n4)c3Cl)c2Cl)ccc1CNC[C@@H]1CCC(=O)N1` [Example 415, (5S)-5-[[[6-[3-[3-[3-[[(1-Acetyl-4-piperidyl)amino]methyl]-1-methyl-pyrrolo[2,3-b]pyridin-6-yl]-2-chloro-phenyl]-2-chloro-phenyl]-2-methoxy-3-pyridyl]methylamino]methyl]pyrrolidin-2-one]: the IC50 came to 0.22 µM.

`Cn1cc(CNC[C@@H]2CCC(=O)N2)c2ccc(-c3cccc(-c4cccc(-c5ccn6c(=O)c(CNC[C@@H]7CCC(=O)N7)cnc6c5)c4Cl)c3Cl)nc21` [Example 416, 8-[2-Chloro-3-[2-chloro-3-[1-methyl-3-[[[(2S)-5-oxopyrrolidin-2-yl]methylamino]methyl]pyrrolo[2,3-b]pyridin-6-yl]phenyl]phenyl]-3-[[[(2S)-5-oxopyrrolidin-2-yl]methylamino]methyl]pyrido[1,2-a]pyrimidin-4-one] yielded an IC50 of 0.071 µM.

Molecule `Cn1cc(CNC[C@@H]2CCC(=O)N2)c2ccc(-c3cccc(-c4cccc(-c5ccc6c(CNC[C@@H]7CCC(=O)N7)cn(C)c6n5)c4Cl)c3Cl)nc21` [Example 417, (5S)-5-[[[6-[2-Chloro-3-[2-chloro-3-[1-methyl-3-[[[(2S)-5-oxopyrrolidin-2-yl]methylamino]methyl]pyrrolo[2,3-b]pyridin-6-yl]phenyl]phenyl]-1-methyl-pyrrolo[2,3-b]pyridin-3-yl]methylamino]methyl]pyrrolidin-2-one] gave an IC50 of 0.032 µM. Against the preceding molecule, the IC50 is about 2.2-fold lower.

Consider `COc1cc(-c2cccc(-c3cccc(-c4ccc(CNC[C@@H]5CCC(=O)N5)c(OC)n4)c3Cl)c2Cl)cc2c1CN(C[C@H](C)O)CC2` [Example 418, (S)-5-((((6-(2,2′-Dichloro-3′-(2-((S)-2-hydroxypropyl)-8-methoxy-1,2,3,4 tetrahydroisoquinolin-6-yl)-[1,1′-biphenyl]-3-yl)-2-methoxypyridin-3-yl)methyl)amino)methyl)pyrrolidin-2-one], for which the IC50 stood at 0.023 µM.

In the case of `COc1cc(-c2cccc(-c3cccc(-c4ccc(CNC[C@@H]5CCC(=O)N5)c(OC)n4)c3Cl)c2Cl)cc2c1CN(C[C@@H](C)O)CC2` [Example 419, (S)-5-((((6-(2,2′-Dichloro-3′-(2-((R)-2-hydroxypropyl)-8-methoxy-1,2,3,4-tetrahydroisoquinolin-6-yl)-[1,1′-biphenyl]-3-yl)-2-methoxypyridin-3-yl)methyl)amino)methyl)pyrrolidin-2-one], inhibition was half-maximal at 0.026 µM (IC50).

Turning to `COc1nc(-c2cccc(-c3cccc(-c4cnc5c(CNC[C@@H]6CCC(=O)N6)c(C)nn5c4)c3Cl)c2Cl)ccc1CNC[C@@H]1CCC(=O)N1` [Example 420, (S)-5-((((6-(2,2′-Dichloro-3′-(2-methyl-3-(((((S)-5-oxopyrrolidin-2-yl)methyl)amino)methyl)pyrazolo[1,5-a]pyrimidin-6-yl)-[1,1′-biphenyl]-3-yl)-2-methoxypyridin-3-yl)methyl)amino)methyl)pyrrolidin-2-one], half-maximal inhibition (IC50) was put at 0.0006 µM.

Take `COc1nc(-c2cccc(-c3cccc(-c4ccc5c(=O)nc(CNC[C@@H]6CCC(=O)N6)[nH]c5c4)c3Cl)c2Cl)ccc1CNC[C@@H]1CCC(=O)N1` [Example 421, 7-(2,2′-Dichloro-3′-(6-methoxy-5-(((((S)-5-oxopyrrolidin-2-yl)methyl)amino)methyl)pyridin-2-yl)-[1,1′-biphenyl]-3-yl)-2-(((((S)-5-oxopyrrolidin-2-yl)methyl)amino)methyl)quinazolin-4(1H)-one]: half-maximal inhibition (IC50) required 0.014 µM.

The molecule `COc1nc(-c2cccc(-c3cccc(-c4ccc5nc(CNC[C@@H]6CCC(=O)N6)ncc5c4)c3Cl)c2Cl)ccc1CNC[C@@H]1CCC(=O)N1` [Example 422, (S)-5-((((6-(2,2′-Dichloro-3′-(2-(((((S)-5-oxopyrrolidin-2-yl)methyl)amino)methyl)quinazolin-6-yl)-[1,1′-biphenyl]-3-yl)-2-methoxypyridin-3-yl)methyl)amino)methyl)pyrrolidin-2-one] displayed an IC50 of 0.0041 µM. This IC50 lies about 3.4-fold lower than the previous one.

`COc1cc(-c2cccc(-c3cccc(-c4ccc(CNC[C@@H]5CCC(=O)N5)c(OC)n4)c3Cl)c2Cl)cc2c1CCN(C[C@@H]1CCC(=O)N1)C2` [Example 424, (S)-5-((((6-(2,2′-Dichloro-3′-(5-methoxy-2-(((S)-5-oxopyrrolidin-2-yl)methyl)-1,2,3,4-tetrahydroisoquinolin-7-yl)-[1,1′-biphenyl]-3-yl)-2-methoxypyridin-3-yl)methyl)amino)methyl)pyrrolidin-2-one] had an IC50 of 0.027 µM.

On to `COc1nc(-c2cccc(-c3cccc(-c4cc(F)c5c(c4)CCN(C[C@@H]4CCC(=O)N4)C5)c3Cl)c2Cl)ccc1CNC[C@@H]1CCC(=O)N1` [Example 425, (S)-5-((6-(2,2′-Dichloro-3′-(6-methoxy-5-(((((S)-5-oxopyrrolidin-2-yl)methyl)-amino)-methyl)-pyridin-2-yl)-[1,1′-biphenyl]-3-yl)-8-fluoro-3,4-dihydroisoquinolin-2(1H)-yl)methyl)pyrrolidin-2-one], for which the IC50 stood at 0.0083 µM.

Consider `COc1nc(-c2cccc(-c3cccc(-c4ccc5c(n4)CCN(C[C@@H]4CCC(=O)N4)C5)c3Cl)c2Cl)ccc1CNC[C@@H]1CCC(=O)N1` [Example 426, (S)-5-((((6-(2,2′-Dichloro-3′-(6-(((S)-5-oxopyrrolidin-2-yl)-methyl)-5,6,7,8-tetrahydro-1,6-naphthyridin-2-yl)-[1,1′-biphenyl]-3-yl)-2-methoxypyridin-3-yl)-methyl)-amino)-methyl)pyrrolidin-2-one], for which the IC50 was found to be 0.0001 µM.

Regarding `COc1nc(-c2cccc(-c3cccc(-c4ccc5c(c4Cl)CN(C[C@@H]4CCC(=O)N4)CC5)c3Cl)c2Cl)ccc1CNC[C@@H]1CCC(=O)N1` [Example 427, (S)-5-((8-Chloro-7-(2,2′-dichloro-3′-(6-methoxy-5-(((((S)-5-oxopyrrolidin-2-yl)methyl)-amino)-methyl)-pyridin-2-yl)-[1,1′-biphenyl]-3-yl)-3,4-dihydroisoquinolin-2(1H)-yl)methyl)pyrrolidin-2-one], the IC50 was found to be 0.0052 µM.

Consider `COc1nc(-c2cccc(-c3cccc(-c4ccc5c(c4F)CN(C[C@@H]4CCC(=O)N4)CC5)c3Cl)c2Cl)ccc1CNC[C@@H]1CCC(=O)N1` [Example 428, (S)-5-((7-(2,2′-Dichloro-3′-(6-methoxy-5-(((((S)-5-oxopyrrolidin-2-yl)methyl)-amino)methyl)-pyridin-2-yl)-[1,1′-biphenyl]-3-yl)-8-fluoro-3,4-dihydroisoquinolin-2(1H)-yl)methyl)-pyrrolidin-2-one], for which the IC50 was determined as 0.14 µM.

Consider `O=C1CC[C@@H](CNCc2nc3cc(-c4cccc(-c5cccc(-c6ccn7c(=O)c(CNC[C@@H]8CCC(=O)N8)cnc7c6)c5Cl)c4Cl)ccn3c2Cl)N1` [Example 429, 8-[2-Chloro-3-[2-chloro-3-[3-chloro-2-[[[(2S)-5-oxopyrrolidin-2-yl]methylamino]methyl]imidazo[1,2-a]pyridin-7-yl]phenyl]phenyl]-3-[[[(2S)-5-oxopyrrolidin-2-yl]methylamino]methyl]pyrido[1,2-a]pyrimidin-4-one], for which the IC50 was 0.24 µM.

With `O=C1CC[C@@H](CNCc2nc3cc(-c4cccc(-c5cccc(-c6ccn7c(Cl)c(CNC[C@@H]8CCC(=O)N8)nc7c6)c5Cl)c4Cl)ccn3c2Cl)N1` [Example 430, (5S)-5-[[[3-Chloro-7-[2-chloro-3-[2-chloro-3-[3-chloro-2-[[[(2S)-5-oxopyrrolidin-2-yl]methylamino]methyl]imidazo[1,2-a]pyridin-7-yl]phenyl]phenyl]imidazo[1,2-a]pyridin-2-yl]methylamino]methyl]pyrrolidin-2-one], 0.17 µM corresponded to half-maximal inhibition (IC50).

The molecule `COc1cc(-c2cccc(-c3cccc(-c4ccn5c(=O)c(CNC[C@@H]6CCC(=O)N6)cnc5c4)c3Cl)c2Cl)nc(Cl)c1CNC[C@@H]1CCC(=O)N1` [Example 431, 8-(2,2′-Dichloro-3′-(6-chloro-4-methoxy-5-(((((S)-5-oxopyrrolidin-2-yl)methyl)-amino)-methyl)pyridin-2-yl)-[1,1′-biphenyl]-3-yl)-3-(((((S)-5-oxopyrrolidin-2-yl)methyl)amino)methyl)-4H-pyrido[1,2-a]pyrimidin-4-one] registered an IC50 of 0.18 µM.

For `COc1nc(-c2cccc(-c3cccc(-c4cnc5c(c4)CCCC5NC[C@@H]4CCC(=O)N4)c3Cl)c2Cl)ccc1CNC[C@@H]1CCC(=O)N1` (stereo partly drawn) [Example 432, (5S)-5-(((3-(2,2′-Dichloro-3′-(6-methoxy-5-(((((S)-5-oxopyrrolidin-2-yl)-methyl)-amino)methyl)-pyridin-2-yl)-[1,1′-biphenyl]-3-yl)-5,6,7,8-tetrahydroquinolin-8-yl)amino)-methyl)-pyrrolidin-2-one], half-maximal inhibition (IC50) was put at 0.27 µM.

The values are drawn from US20230143612A1 (Arbutus Biopharma Corporation, priority 2020, published 2023).
